From US9249306B2, “Quenched dendrimeric dyes for florescence detection” (Carnegie Mellon University, priority 2009, dated 2016)
pKd: −log10 of the molar value. Like-named read-outs stand apart in the source and are kept apart here.

Assays:
[1] = tested on: L5-MG E52D; type: physicochemical, human; settings: soluble dyedron/L5-MG E52D complex; 620 nm excitation
Procedure: Fluoromodules were assembled as above, and quantum yields based on the acceptor MG excitation band were determined as described using Cy5.18 as the calibration dye (Szent-Gyorgyi, C., et al., Nature Biotechnology 2008, 26, 235-240). Quantum yields determined with 620 nm excitation (Table 2) were essentially the same as unreported quantum yields determined with 590 nm excitation (<5% difference).

[2] = target: L5-MG E52D; type: binding, human; settings: yeast cell surface displayed L5-MG E52D; PBS+
Procedure: Microplate fluorometry was carried out on a Tecan Safire2 microplate reader using 96 well microplates with 5×10^6 yeast cells/well.
Yeast JAR200 cells expressing L5-MG E52D were suspended at 10^7 cells/ml in modified PBS+ buffer in the presence of the indicated dyedron concentrations. Fluorescence was read on a Safire2 plate fluorimeter. KD values reported in Table 2 were determined using GraphPad Prism 4 software fits to the one site hyperbolic binding curves shown here. Under these conditions, KD values below 1 nM cannot be determined precisely. Plateau fluorescence levels correspond closely to the relative fluorescence signals seen in flow cytometric analyses using 635 nm laser excitation of the MG band (Table 3).

[3] = tested on: yeast strain JAR200 expressing L5-MG E52D scFv on the cell surface; assay: Flow cytometric quantification of dyedron binding to yeast displayed L5-MG E52D; type: cell-based, Saccharomyces cerevisiae; settings: for increase in specific brightness (factor), 532 nm vs 635 nm staining ratio / 532 laser median / 635 laser median / 532 laser mean / 635 laser mean: 300 nM dyedron; for increase in specific brightness (factor), 532 nm vs 635 nm staining ratio: live yeast; for 532 laser median / 635 laser median / 532 laser mean / 635 laser mean: 675/50 bandpass, JAR200 L5-MG E52D; for 532 laser mean / 635 laser mean: gated positive population; for FACS532/FACS635: median of stained population - median of unstained control
Procedure: (§1) FIG. 15. Flow cytometric analysis of dyedron-labeled yeast by exciting donor (blue) or acceptor (red). Saccharomyces cerevisiae cells expressing L5-MG E52D on their surface were analyzed essentially as described in WO 08/092,041 and in Szent-Gyorgyi, C.; Schmidt, B. F.; Creeger, Y.; Fisher, G. W.; Zakel, K. L.; Adler, S.; Fitzpatrick, J. A. J.; Woolford, C. A.; Yan, Q.; Vasilev, K. V.; Berget, P. B.; Bruchez, M. P.; Jarvik, J. W.; Waggoner, A. Nature Biotechnology 2008, 26, 235-240. Two aliquots of each stained population and an unstained control (U) were respectively analyzed, exciting at 532 nm (donor) or 635 nm (acceptor), and collecting emission through a 675/50 nm bandpass (BP) filter. Each analysis comprised 100,000 cells. Stained samples contain a sub-population of non-fluorescent cells due to loss of scFv-encoding plasmid, whose signal corresponds to that of unstained samples (marked by thin lines). Controls show virtually no fluorescence generated by dyedrons on cell surfaces in the absence of expressed FAP (Table 3). Unstained cells excited at 532 nm are relatively brighter than those excited at 635 nm due to higher cellular autofluorescence at the shorter wavelength. Doublet stained peaks correspond to unbudded and budded yeast cells, and are typical for such experiments. Separation of the positive cells from negative cells remains essentially constant under 635 nm excitation but increases in proportion to the number of Cy3 donors under 532 nm excitation. The enhanced excitation in the dyedrons results in increased sensitivity in the flow cytometer.

[4] = tested on: control strain JAR200 that does not express scFv; assay: Flow cytometry, control strain that does not express scFv; type: cell-based, Saccharomyces cerevisiae; settings: 300 nM dyedron, 675/50 bandpass
Procedure: as §1

[5] = tested on: L5-MG E52D; type: physicochemical, human; settings: soluble dyedron/L5-MG E52D complex
[6] = tested on: L5-MG E52D; type: physicochemical, human; settings: bound to L5-MG E52D; for Relative quantum yield, 514 nm / Relative quantum yield, 532 nm / Relative quantum yield, 561 nm: normalized to 633 nm value; for Relative quantum yield, 633 nm: set to 1.00
[7] = Donor array fluorescence of Cy3-labeled cystamine core PAMAM dendrimers; type: physicochemical
Procedure: To test the impact of high loading on donor array fluorescence, two cystamine core PAMAM dendrimers (Gen2-16 NH2 and Gen3-32 NH2) were labeled with an excess of monoreactive Cy3-NHS ester. After removal of excess dye by gel filtration the resulting macromolecules were analyzed by electrophoresis, and found to have low net mobility. Because each Cy3 molecule carries one net negative charge, a fully modified dendron should have a net charge of −2. […] However, these conjugates allow for the assessment of the potential risk of donor quenching.

[8] = tested on: selected scFv; assay: Fluorescence activation of malachite green by selected scFv; type: biochemical; settings: in buffer
[9] = not given; remark: listed apart in the source

Structure (SMILES) | φMG (quantum yield for MG excitation peak) [1] | pKd [2] | increase in specific brightness (factor), 532 nm vs 635 nm staining ratio [3] | 532 laser median [3] | 635 laser median [3] | 532 laser mean [3] | 635 laser mean [3] | FACS532/FACS635 [3] | 532 laser mean [4] | 532 laser median [4] | 635 laser mean [4] | 635 laser median [4] | εmax [M^−1cm^−1] [5] | εmax [nm] [5] [nm] | Relative quantum yield, 514 nm [6] | Relative quantum yield, 532 nm [6] | Relative quantum yield, 561 nm [6] | Relative quantum yield, 633 nm [6] | other results
CC[N+]1=C(/C=C/C=C2/N(CCCCCC(=O)NCC(CNC(=O)CCCCCN3/C(=C/C=C/C4=[N+](CC)c5ccc(S(=O)(=O)O)cc5C4(C)C)C(C)(C)c4cc(S(=O)(=O)[O-])ccc43)OCC(=O)NCCCOc3ccc(C(=C4C=CC(=[N+](C)C)C=C4)c4ccc(N(C)C)cc4)cc3)c3ccc(S(=O)(=O)[O-])cc3C2(C)C)C(C)(C)c2cc(S(=O)(=O)[O-])ccc21 (centres unmarked) [BCM] | 0.047 | 8.40 | ~3 | 6912 | 2047 | 17894 | 5521 | 3.27 | 113 | 84 | 105 | 64 | 290,000 M^−1cm^−1 | 551 | 0.92 | 0.86 | 1.31 | 1.00 | 
CCN1/C(=C\C=C\C2=[N+](CCCCCC(=O)NCCNC(=O)CCCOc3ccc(C(=C4C=CC(=[N+](C)C)C=C4)c4ccc(N(C)C)cc4)cc3)c3ccc(S(=O)(=O)[O-])cc3C2(C)C)C(C)(C)c2cc(S(=O)(=O)[O-])ccc21 [CM, 1-{6-[(2-{[4-(4-{[4-(dimethylamino)phenyl][4-(dimethyliminio)cyclohexa-2,5-dien-1-ylidene]methyl}phenoxy)butanoyl]amino}ethyl)amino]-6-oxohexyl}-2-[(1E,3Z)-3-(1-ethyl-3,3-dimethyl-5-sulfonato-1,3-dihydro-2H-indol-2-ylidene)prop-1-en-1-yl]-3,3-dimethyl-3H-indolium-5-sulfonate] | 0.057 | > 9.00 | about 2 | 6170 | 2793 | 15946 | 7455 | 2.17 | 123 | 95 | 108 | 65 | 140,000 M^−1cm^−1 | 552 | 1.24 | 1.08 | 1.41 | 1.00 | 
CCN1/C(=C\C=C\C2=[N+](CCCCCC(=O)O)c3ccc(S(=O)(=O)O)cc3C2(C)C)C(C)(C)c2cc(S(=O)(=O)[O-])ccc21 [Cy3] |  |  |  |  |  |  |  |  |  |  |  |  |  |  |  |  |  |  | Estimated Diam. (nm) [7]: 1.5 nm
CN(C)c1ccc(C(=C2C=CC(=[N+](C)C)C=C2)c2ccc(OCCCC(=O)NCCNC(=O)CCC(=O)NCCOCCOCCN)cc2)cc1 [M, malachite green diethyleneglycolamine] | 0.055 | > 9.00 |  | 335 | 2635 | 435 | 7089 | 0.07 | 111 | 76 | 118 | 74 | 79,000 M^−1cm^−1 | 642 |  |  | 1.44 | 1.00 | extinction coefficient (PBS+): 50,700 M^−1cm^−1; extinction coefficient (ethanol/5% HAc): 91,500 M^−1cm^−1
CN(C)c1ccc(C(=C2C=CC(=[N+](C)C)C=C2)c2ccccc2)cc1 [Malachite green] |  |  |  |  |  |  |  |  |  |  |  |  |  |  |  |  |  |  | activation to fluorescent state (fold) [8]: > 15,000 fold
CN(C)c1ccc(C(C#Cc2ccc(N(C)CCOCCCC(=O)O)cc2)=C2C=CC(=[N+](C)C)C=C2)cc1.[Cl-] [acetylenic derivative of malachite green] |  |  |  |  |  |  |  |  |  |  |  |  |  |  |  |  |  |  | quantum yield in water [9]: ≤ 0.003
